Assay results: publication PMC5773577, “Novel Miniature Membrane Active Lipopeptidomimetics against Planktonic and Biofilm Embedded Methicillin-Resistant Staphylococcus aureus” (Scientific Reports, 2018)
Values after ≈ are worked out from the molar mass of the structure shown. Like-named read-outs stand apart in the source and are kept apart here. Non-standard residues stand in square brackets, D forms with d. Residues, ends and D or L forms follow the SMILES beside them. No end group written: not given here. d1Nal = N[C@H](Cc1cccc2ccccc12)C(=O)O; 12Ado = NCCCCCCCCCCCC(=O)O; Aoc = NCCCCCCCC(=O)O

How the values were obtained:
MRSA ATCC 33591 [1] = assay: Resistance development over 17 serial passages at sub-MIC; type: cell-based, Staphylococcus aureus; conditions: for MIC: Staphylococcus aureus
Protocol: For the experiment, a method as described previously was used with slight modifications. Briefly, for the experiment, on day 1 the initial MICs of all test agents were determined using routine MIC experiment protocol as described earlier. Next day, bacterial cells (100 μL) from the wells with concentrations 2–4 fold less than the MIC value for each test agent were used to set up fresh mid-log phase cultures in MHB medium for setting up the MIC plate. This was repeated for a total of 17 sub-lethal treatments with each antimicrobial agent. For every passage, corresponding glycerol stocks (15% v/v) were made for each culture and were kept at −80 °C for future use.

[2] = system: mouse red blood cells (RBCs); assay: Hemolysis assay; type: cell-based; conditions: mouse RBC, up to 250 μg/mL, 1 h, 37 °C, PBS pH 7.4; 0.1% Triton X-100 = 100%; data not shown
Protocol: For the experiment, a previously defined procedure was used with slight modifications[67],[68]. Briefly, blood was withdrawn from mice on the day of the experiment. After washing red blood cells (RBC) twice with phosphate buffer saline (PBS: 35 mM sodium phosphate, 150 mM NaCl, pH 7.4), a 4% v/v suspension of RBC was prepared in the same buffer. In a 96-well plate, serial two-fold dilutions of desired concentrations of peptidomimetics (in PBS) were prepared (100 μL) in duplicate. To each well 100 μL of 4% v/v RBC suspension was added. The plates were incubated at 37 °C for 1 h. After 1 h, the plates were centrifuged at 1500 rpm for 10 min and 20 μL of the supernatant was transferred to a fresh 96-well plate containing 80 μL PBS. The hemoglobin release was quantified by measuring OD414 in an ELISA plate reader (Molecular Devices, Sunnyvale, CA, USA). Hemoglobin release from 0.1% Triton X-100 treated RBC was set as 100% lysis (Amax) while as negative control RBC suspended in PBS alone was used (APBS). Percentage hemolysis was calculated using the following equation:1 %hemolysis=[(Asample−APBS)/(Amax−APBS)]×100

[3] = system: Escherichia coli (ATCC 11775); type: cell-based
Protocol: (§1) The antibacterial activity was evaluated as MIC using slight modifications to a serial broth micro dilution method as reported previously[66],[67]. Briefly, to each treatment well of the 96-well plate (Corning Incorporated, USA) 10 μL of peptidomimetic/antibiotic was added and subsequently diluted serial 2-fold in 0.2% BSA (in 0.01% acetic acid). Then to each well of the first 11 columns 100 μL of mid-log phase bacterial suspension in MHB medium was added to get 2–5 × 10^5 CFU/mL. Cultures without test peptidomimetics/antibiotics were used as growth control. Uninoculated MHB medium was used as negative control. The microtitre plates were incubated overnight with agitation (180 rpm) at 37 °C. After 16–18 h incubation, absorbance was read at 600 nm using an ELISA plate reader (Molecular Devices, Sunnyvale, CA, USA). The experiments were carried out in duplicate on at least three different days.

MRSA ATCC 33591 [4] = assay: microbe, parasite or virus in culture; type: cell-based, Staphylococcus aureus
Protocol: An initial inoculum of mid-log phase 10^7 CFU/mL was used and MIC experiment was performed as described earlier. For serum/plasma stability assay a method as described previously was used with slight modifications. Briefly, 50 μL MHB medium containing desired concentration of test peptidomimetics was incubated with 50 µL mice plasma/fetal bovine serum for 3 h at 37 °C. After incubation, a 10 μL aliquot was taken out for MIC determination as described above. For the experiment, mid-log phase 2–5 × 10^5 CFU/mL were used as initial inoculum. For the growth control wells, an equivalent amount of plasma/FBS in the medium was also added to evaluate their effect on the viability of cells. A slight decrease in OD600 of cells incubated with mice plasma was observed compared to untreated growth control in MHB alone. The experiments were repeated on two different days and reproducible MIC values were observed.

[5] = system: E. faecium (E-7846), clinical isolate of vancomycin-resistant E. faecium; assay: organism not typed; type: cell-based, Enterococcus faecium; conditions: VRE clinical isolate E-7846; MHB, 2–5 × 10^5 CFU/mL, 16–18 h, 37 °C
Protocol: as §1

[6] = system: E. faecium (E-447), clinical isolate of vancomycin-resistant E. faecium; assay: organism not typed; type: cell-based, Enterococcus faecium; conditions: VRE clinical isolate E-447; MHB, 2–5 × 10^5 CFU/mL, 16–18 h, 37 °C
Protocol: as §1

[7] = system: 3T3 murine fibroblast cell line; assay: Cytotoxicity, MTT assay; type: cell-based; conditions: 3T3 fibroblasts, 2 h, DMEM with 10% FBS, mean ± S.D., triplicate on two days
Protocol: For the active peptidomimetics cytotoxicity was measured against 3T3 murine fibroblast cell line using a previously defined MTT assay with slight modifications. Briefly, the cells were grown to over 75% confluence in DMEM supplemented with 10% FBS and antibiotics (1 × Anti-anti) at 37 °C in 5% CO2 atmosphere. The cells were transferred to a 24-well plate to a final count of ~8 × 10^4 cells/well. […] The plates were kept for 2 h at 37 °C in 5% CO2 incubator. After 2 h, the cells were washed once with 1 mL PBS. Then 1 mL MTT (0.1 mg/mL) was added to each well in dark and incubated for 2 h at 37 °C in 5% CO2. After 2 h, 200 μL of DMSO was added to the wells to dissolve the formazan crystals formed and the plates were kept for 5 min in the incubator at 37 °C. 100 μL of the suspension was transferred to a fresh 96-well plate and absorbance (Asample) was measured at 570 nm in an ELISA plate reader (Molecular Devices, Sunnyvale, CA, USA). The wells with DMSO treatment were set as untreated control (Auntreated control). The assay was done in triplicate on two different days. The % survival was calculated using the following equation:2 %survival=[Asample/Auntreatedcontrol]×100

[8] = system: Methicillin-resistant S. epidermidis (ATCC 35984); assay: microbe, parasite or virus in culture; type: cell-based, Staphylococcus epidermidis; conditions: MRSE ATCC 35984; MHB, 2–5 × 10^5 CFU/mL, 16–18 h, 37 °C, OD600
Protocol: as §1

S. aureus (ISP479R) = type: cell-based, Staphylococcus aureus; conditions: MHB, 2–5 × 10^5 CFU/mL, 16–18 h, 37 °C, OD600
Protocol: as §1

S. aureus (ATCC 29213) = assay: microbe, parasite or virus in culture; type: cell-based, Staphylococcus aureus; conditions: MHB, 2–5 × 10^5 CFU/mL, 16–18 h, 37 °C, OD600, duplicate, at least three days
Protocol: as §1

MRSA (ATCC 43300) = assay: microbe, parasite or virus in culture; type: cell-based, Staphylococcus aureus; conditions: MHB, 2–5 × 10^5 CFU/mL, 16–18 h, 37 °C, OD600
Protocol: as §1

S. aureus (ISP479C) = assay: microbe, parasite or virus in culture; type: cell-based, Staphylococcus aureus; conditions: MHB, 2–5 × 10^5 CFU/mL, 16–18 h, 37 °C, OD600
Protocol: as §1

MRSA (ATCC 33591) = assay: microbe, parasite or virus in culture; type: cell-based, Staphylococcus aureus; conditions: MHB, 2–5 × 10^5 CFU/mL, 16–18 h, 37 °C, OD600
Protocol: as §1

## O=C(O)c1cn(C2CC2)c2cc(N3CCNCC3)c(F)cc2c1=O [CIP, Ciprofloxacin]
MRSA ATCC 33591 [1]; read-out: final MIC
  MIC: 11.3 µg/mL (≈ 34.1 µM)
MRSA ATCC 33591 [1]; read-out: initial MIC
  MIC: 0.17 µg/mL (≈ 0.513 µM)
MRSA ATCC 33591 [1]; at 6th passage
  fold increase in MIC: ~16 fold
MRSA ATCC 33591 [1]; over 17 passages (final MIC / initial MIC)
  fold increase in MIC: 66.8 fold

## N=C(N)NCCC[C@H](NC(=O)[C@@H](N)Cc1c[nH]c2ccccc12)C(=O)N[C@H](Cc1ccccc1C(F)(F)F)C(=O)N[C@@H](CCCNC(=N)N)C(=O)N[C@@H](Cc1c[nH]c2ccccc12)C(N)=O [S-2, Trp-Arg-(2-trifluoromethyl-D-Phe)-Arg-Trp-CONH2] (HELM PEPTIDE1{W.R.[O=C([C@@H](Cc1ccccc1C(F)(F)F)N[*:1])[*:2]].R.W.[am]}$$$$V2.0)
[2]
  % hemolysis: < 5%

## N=C(N)NCCC[C@H](NC(=O)[C@@H](N)Cc1c[nH]c2ccccc12)C(=O)N[C@H](Cc1cccc2ccccc12)C(=O)N[C@@H](CCCNC(=N)N)C(=O)N[C@@H](Cc1c[nH]c2ccccc12)C(N)=O [S-3, Trp-Arg-(D-1-Nal)-Arg-Trp-CONH2] (HELM PEPTIDE1{W.R.[O=C([C@@H](Cc1cccc2ccccc12)N[*:1])[*:2]].R.W.[am]}$$$$V2.0)
[2]
  % hemolysis: < 5%

## N=C(N)NCCC[C@H](NC(=O)CCCCCCCNC(=O)[C@H](CCCNC(=N)N)NC(=O)[C@@H](N)Cc1c[nH]c2ccccc12)C(=O)N[C@@H](Cc1c[nH]c2ccccc12)C(N)=O [S-5, Trp-Arg-(8-AOA)-Arg-Trp-CONH2] (HELM PEPTIDE1{W.R.[O=C(CCCCCCCN[*:1])[*:2]].R.W.[am]}$$$$V2.0)
[2]
  % hemolysis: < 5%

## N=C(N)NCCC[C@H](NC(=O)CCCCCCCCCCCNC(=O)[C@H](CCCNC(=N)N)NC(=O)[C@@H](N)Cc1c[nH]c2ccccc12)C(=O)N[C@@H](Cc1c[nH]c2ccccc12)C(N)=O [S-6, Trp-Arg-(12-ADO)-Arg-Trp-CONH2] (HELM PEPTIDE1{W.R.[O=C(CCCCCCCCCCCN[*:1])[*:2]].R.W.[am]}$$$$V2.0)
[3]
  MIC: > 45.4 µg/mL
MRSA ATCC 33591 [4]; ATCC 33591, 3 h
  Minimum inhibitory concentration, MIC: 22.7 µg/mL (≈ 25.2 µM)
MRSA ATCC 33591 [4]; MRSA ATCC 33591, initial inoculum 10^7 CFU/mL, mid-log phase
  Minimum inhibitory concentration, MIC: 11.3 µg/mL (≈ 12.6 µM)
[5]
  Minimum inhibitory concentration, MIC: 11.3 µg/mL (≈ 12.6 µM)
[6]
  Minimum inhibitory concentration, MIC: 11.3 µg/mL (≈ 12.6 µM)
[7]; 10× MIC
  % viable cells relative to untreated control (MTT): no decrease in cell viability
[7]; 20 × MIC
  % viable cells relative to untreated control (MTT): no decrease in cell viability
[8]
  Minimum inhibitory concentration, MIC: 11.3 µg/mL (≈ 12.6 µM)
S. aureus (ISP479R)
  Minimum inhibitory concentration, MIC: 11.3 µg/mL (≈ 12.6 µM)
S. aureus (ATCC 29213)
  Minimum inhibitory concentration, MIC: 11.3 µg/mL (≈ 12.6 µM)
MRSA (ATCC 43300)
  Minimum inhibitory concentration, MIC: 11.3 µg/mL (≈ 12.6 µM)
S. aureus (ISP479C)
  Minimum inhibitory concentration, MIC: 11.3 µg/mL (≈ 12.6 µM)
MRSA (ATCC 33591)
  Minimum inhibitory concentration, MIC: 11.3 µg/mL (≈ 12.6 µM)

## N=C(N)NCCC[C@H](NC(=O)[C@@H](Cc1cccc2ccccc12)NC(=O)CCCCCCCCCCCNC(=O)[C@@H](Cc1cccc2ccccc12)NC(=O)[C@@H](N)CCCNC(=N)N)C(N)=O [S-8, Arg-(D-1-Nal)-(12-ADO)-(D-1-Nal)-Arg-CONH2] (H-R[d1Nal][12Ado][d1Nal]R-NH2)
[3]
  MIC: 5.6 µg/mL (≈ 6.08 µM)
[5]
  Minimum inhibitory concentration, MIC: 5.6 µg/mL (≈ 6.08 µM)
[7]; 10× MIC
  % viable cells relative to untreated control (MTT): 84.8 ± 5.6%
[7]; 20 × MIC
  % viable cells relative to untreated control (MTT): 81.1 ± 2.9%
[8]
  Minimum inhibitory concentration, MIC: 1.4 µg/mL (≈ 1.52 µM)
S. aureus (ISP479R)
  Minimum inhibitory concentration, MIC: 0.7 µg/mL (≈ 0.76 µM)
MRSA (ATCC 43300)
  Minimum inhibitory concentration, MIC: 1.4 µg/mL (≈ 1.52 µM)

## N=C(N)NCCC[C@H](NC(=O)[C@@H](Cc1cccc2ccccc12)NC(=O)CCCCCCCNC(=O)[C@@H](Cc1cccc2ccccc12)NC(=O)[C@@H](N)CCCNC(=N)N)C(N)=O [S-9, Arg-(D-1-Nal)-(8-AOA)-(D-1-Nal)-Arg-CONH2] (H-R[d1Nal][Aoc][d1Nal]R-NH2)
[8]
  Minimum inhibitory concentration, MIC: 45.4 µg/mL (≈ 52.5 µM)
S. aureus (ISP479R)
  Minimum inhibitory concentration, MIC: 45.4 µg/mL (≈ 52.5 µM)
MRSA (ATCC 43300)
  Minimum inhibitory concentration, MIC: >45.4 µg/mL
S. aureus (ISP479C)
  Minimum inhibitory concentration, MIC: 45.4 µg/mL (≈ 52.5 µM)
[2]
  % hemolysis: < 5%

## WRWRW-NH2 [S-1, Trp-Arg-Trp-Arg-Trp-CONH2]
[2]
  % hemolysis: < 5%
